Experiments:
Assay in all cases: biochemical
Parameters in all cases: KINOMEscan active-site competition binding, percent of control (100 = no competition)
Conditions in all cases: competition binding, percent control
YSK4 = molecular target: T1, YSK4 (Homo sapiens, UniProt Q56UN5)
T1 construct: gene MAP3K19

STK36 = STK36 (Homo sapiens, UniProt Q9NRP7)
EPHA7 = EPHA7 (Homo sapiens, UniProt Q15375)
IRAK3 = IRAK3 (Homo sapiens, UniProt Q9Y616)
MKNK1 = MKNK1 (Homo sapiens, UniProt Q9BUB5)
CLK3 = CLK3 (Homo sapiens, UniProt P49761)
TRPM6 = TRPM6 (Homo sapiens, UniProt Q9BX84)
NEK2 = NEK2 (Homo sapiens, UniProt P51955)
CDC2L1 = molecular target: T2, CDC2L1 (Homo sapiens, UniProt P21127)
T2 construct: gene CDK11B

CDK2 = CDK2 (Homo sapiens, UniProt P24941)
WEE2 = WEE2 (Homo sapiens, UniProt P0C1S8)
FAK = molecular target: T3, FAK (Homo sapiens, UniProt Q05397)
T3 construct: gene PTK2

ERK1 = molecular target: T4, ERK1 (Homo sapiens, UniProt P27361)
T4 construct: gene MAPK3

EPHB3 = EPHB3 (Homo sapiens, UniProt P54753)
MARK4 = MARK4 (Homo sapiens, UniProt Q96L34)
EPHA6 = EPHA6 (Homo sapiens, UniProt Q9UF33)
FLT3 = FLT3 (Homo sapiens, UniProt P36888)
CDK4-cyclinD3 = molecular target: T5, CDK4-cyclinD3 (Homo sapiens, UniProt P11802)
T5 construct: cyclinD3

LOK = molecular target: T6, LOK (Homo sapiens, UniProt O94804)
T6 construct: gene STK10

TRKB = molecular target: T7, TRKB (Homo sapiens, UniProt Q16620)
T7 construct: gene NTRK2

ERK3 = molecular target: T8, ERK3 (Homo sapiens, UniProt Q16659)
T8 construct: gene MAPK6

FLT3(ITD) = FLT3(ITD) (Homo sapiens, UniProt P36888, ITD)
[1] = molecular target: T9, JAK1(JH1domain-catalytic) (Homo sapiens, UniProt P23458)
T9 construct: JH1domain-catalytic
T9 sequence (P23458 whole entry): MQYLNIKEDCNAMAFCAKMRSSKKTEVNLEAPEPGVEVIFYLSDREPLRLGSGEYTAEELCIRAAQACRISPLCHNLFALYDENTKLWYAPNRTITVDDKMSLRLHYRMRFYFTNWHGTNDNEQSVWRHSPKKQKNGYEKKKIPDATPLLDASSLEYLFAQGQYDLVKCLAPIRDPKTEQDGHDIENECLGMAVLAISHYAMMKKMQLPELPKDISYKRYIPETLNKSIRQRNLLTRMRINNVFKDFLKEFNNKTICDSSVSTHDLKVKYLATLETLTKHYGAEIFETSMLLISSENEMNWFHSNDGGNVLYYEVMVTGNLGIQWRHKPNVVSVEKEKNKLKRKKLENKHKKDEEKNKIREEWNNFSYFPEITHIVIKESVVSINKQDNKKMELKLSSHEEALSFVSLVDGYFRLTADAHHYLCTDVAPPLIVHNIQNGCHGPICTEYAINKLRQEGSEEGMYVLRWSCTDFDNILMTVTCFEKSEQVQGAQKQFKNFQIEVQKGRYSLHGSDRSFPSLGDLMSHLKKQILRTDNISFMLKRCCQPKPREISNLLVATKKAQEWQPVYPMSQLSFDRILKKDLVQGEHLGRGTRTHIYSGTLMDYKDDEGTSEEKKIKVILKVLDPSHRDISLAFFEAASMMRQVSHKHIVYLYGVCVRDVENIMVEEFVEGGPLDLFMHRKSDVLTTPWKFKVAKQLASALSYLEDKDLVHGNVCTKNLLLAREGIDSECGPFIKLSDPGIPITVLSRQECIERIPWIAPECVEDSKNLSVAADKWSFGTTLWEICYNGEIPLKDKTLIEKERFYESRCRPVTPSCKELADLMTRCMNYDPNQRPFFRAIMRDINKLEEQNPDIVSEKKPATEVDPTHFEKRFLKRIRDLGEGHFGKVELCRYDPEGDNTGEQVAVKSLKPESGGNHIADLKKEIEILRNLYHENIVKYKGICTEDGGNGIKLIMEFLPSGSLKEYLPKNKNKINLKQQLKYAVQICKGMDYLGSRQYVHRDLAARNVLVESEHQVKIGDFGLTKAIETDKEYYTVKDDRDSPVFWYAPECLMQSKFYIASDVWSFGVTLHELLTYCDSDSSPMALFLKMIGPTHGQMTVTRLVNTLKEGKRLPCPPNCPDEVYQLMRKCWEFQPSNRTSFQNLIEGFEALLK

STK36, sequence (Q9NRP7 whole entry): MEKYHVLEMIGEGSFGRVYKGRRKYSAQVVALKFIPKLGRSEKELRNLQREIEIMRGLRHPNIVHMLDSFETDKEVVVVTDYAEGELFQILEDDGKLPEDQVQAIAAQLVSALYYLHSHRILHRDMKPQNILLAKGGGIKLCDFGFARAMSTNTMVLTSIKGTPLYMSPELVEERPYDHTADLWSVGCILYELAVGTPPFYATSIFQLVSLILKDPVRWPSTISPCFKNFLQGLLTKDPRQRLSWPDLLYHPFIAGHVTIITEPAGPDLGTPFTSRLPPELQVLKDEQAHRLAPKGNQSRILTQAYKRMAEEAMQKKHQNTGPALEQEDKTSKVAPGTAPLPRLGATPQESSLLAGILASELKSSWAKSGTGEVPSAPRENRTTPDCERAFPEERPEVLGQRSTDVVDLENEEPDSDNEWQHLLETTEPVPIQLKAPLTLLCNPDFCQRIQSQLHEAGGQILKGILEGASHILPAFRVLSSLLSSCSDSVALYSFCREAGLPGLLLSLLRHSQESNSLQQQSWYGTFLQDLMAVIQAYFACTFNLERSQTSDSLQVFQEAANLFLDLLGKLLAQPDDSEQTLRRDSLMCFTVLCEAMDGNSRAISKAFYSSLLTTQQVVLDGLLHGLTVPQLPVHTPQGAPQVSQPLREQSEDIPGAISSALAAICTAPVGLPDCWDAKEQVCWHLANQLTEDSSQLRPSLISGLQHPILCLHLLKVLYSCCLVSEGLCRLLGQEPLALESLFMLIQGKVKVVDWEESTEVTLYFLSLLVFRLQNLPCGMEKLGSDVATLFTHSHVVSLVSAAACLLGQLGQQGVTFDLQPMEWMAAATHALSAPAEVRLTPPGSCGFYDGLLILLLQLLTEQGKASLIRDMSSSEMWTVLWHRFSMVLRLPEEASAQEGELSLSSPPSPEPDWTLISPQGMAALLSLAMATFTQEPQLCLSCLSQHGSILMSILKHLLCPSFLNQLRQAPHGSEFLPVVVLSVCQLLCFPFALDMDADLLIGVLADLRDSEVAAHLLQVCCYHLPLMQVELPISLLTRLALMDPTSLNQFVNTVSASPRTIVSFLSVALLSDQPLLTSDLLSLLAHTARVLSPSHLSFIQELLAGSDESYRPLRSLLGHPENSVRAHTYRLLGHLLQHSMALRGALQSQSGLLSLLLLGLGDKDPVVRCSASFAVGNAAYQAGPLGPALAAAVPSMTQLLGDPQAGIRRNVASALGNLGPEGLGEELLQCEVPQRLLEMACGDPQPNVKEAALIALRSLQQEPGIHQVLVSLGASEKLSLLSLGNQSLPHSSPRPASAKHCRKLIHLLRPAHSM
EPHB3, sequence (P54753 whole entry): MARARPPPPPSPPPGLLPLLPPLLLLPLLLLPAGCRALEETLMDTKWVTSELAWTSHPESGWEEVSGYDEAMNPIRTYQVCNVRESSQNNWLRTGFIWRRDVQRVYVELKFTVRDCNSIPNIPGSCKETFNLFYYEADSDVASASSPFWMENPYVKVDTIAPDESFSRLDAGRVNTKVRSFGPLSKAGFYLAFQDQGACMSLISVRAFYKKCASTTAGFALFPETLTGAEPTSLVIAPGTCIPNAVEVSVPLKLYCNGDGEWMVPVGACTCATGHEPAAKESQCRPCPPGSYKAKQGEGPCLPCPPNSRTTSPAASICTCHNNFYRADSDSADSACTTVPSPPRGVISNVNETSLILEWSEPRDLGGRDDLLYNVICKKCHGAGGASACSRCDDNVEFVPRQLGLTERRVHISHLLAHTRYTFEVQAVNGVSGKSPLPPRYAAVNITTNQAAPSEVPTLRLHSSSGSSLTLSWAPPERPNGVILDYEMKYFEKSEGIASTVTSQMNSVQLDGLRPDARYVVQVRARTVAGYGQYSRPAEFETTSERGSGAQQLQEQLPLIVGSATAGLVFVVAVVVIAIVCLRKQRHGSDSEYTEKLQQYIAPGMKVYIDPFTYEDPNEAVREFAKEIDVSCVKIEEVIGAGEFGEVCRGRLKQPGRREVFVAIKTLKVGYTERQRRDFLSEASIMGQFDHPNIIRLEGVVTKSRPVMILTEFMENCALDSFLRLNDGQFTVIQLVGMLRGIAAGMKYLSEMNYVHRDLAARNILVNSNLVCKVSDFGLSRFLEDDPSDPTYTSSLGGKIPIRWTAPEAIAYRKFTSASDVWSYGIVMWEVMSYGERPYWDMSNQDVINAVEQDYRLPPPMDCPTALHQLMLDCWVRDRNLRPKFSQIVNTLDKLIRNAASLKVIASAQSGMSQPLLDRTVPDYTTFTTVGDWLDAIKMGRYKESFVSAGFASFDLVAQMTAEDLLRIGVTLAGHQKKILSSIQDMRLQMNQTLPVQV
T2 sequence (P21127 whole entry): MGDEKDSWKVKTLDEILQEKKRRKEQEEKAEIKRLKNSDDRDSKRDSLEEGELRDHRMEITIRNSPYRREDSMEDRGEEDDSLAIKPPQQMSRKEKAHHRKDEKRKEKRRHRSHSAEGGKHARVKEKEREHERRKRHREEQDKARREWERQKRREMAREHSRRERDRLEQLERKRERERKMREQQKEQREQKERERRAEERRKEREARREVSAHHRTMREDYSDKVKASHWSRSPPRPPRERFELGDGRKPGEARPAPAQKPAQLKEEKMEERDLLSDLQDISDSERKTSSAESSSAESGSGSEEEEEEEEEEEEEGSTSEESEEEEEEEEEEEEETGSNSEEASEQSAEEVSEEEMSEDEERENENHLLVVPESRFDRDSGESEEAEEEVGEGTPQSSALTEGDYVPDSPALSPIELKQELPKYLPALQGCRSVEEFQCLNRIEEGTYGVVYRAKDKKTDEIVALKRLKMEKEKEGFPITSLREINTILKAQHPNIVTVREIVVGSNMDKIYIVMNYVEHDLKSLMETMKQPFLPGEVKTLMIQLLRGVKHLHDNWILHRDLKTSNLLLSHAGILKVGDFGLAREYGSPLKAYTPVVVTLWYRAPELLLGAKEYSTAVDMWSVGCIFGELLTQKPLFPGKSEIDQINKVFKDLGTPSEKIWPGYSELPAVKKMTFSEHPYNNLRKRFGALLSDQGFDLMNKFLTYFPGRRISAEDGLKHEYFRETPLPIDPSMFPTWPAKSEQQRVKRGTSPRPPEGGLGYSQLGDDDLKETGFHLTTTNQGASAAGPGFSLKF
NEK2, sequence (P51955 whole entry): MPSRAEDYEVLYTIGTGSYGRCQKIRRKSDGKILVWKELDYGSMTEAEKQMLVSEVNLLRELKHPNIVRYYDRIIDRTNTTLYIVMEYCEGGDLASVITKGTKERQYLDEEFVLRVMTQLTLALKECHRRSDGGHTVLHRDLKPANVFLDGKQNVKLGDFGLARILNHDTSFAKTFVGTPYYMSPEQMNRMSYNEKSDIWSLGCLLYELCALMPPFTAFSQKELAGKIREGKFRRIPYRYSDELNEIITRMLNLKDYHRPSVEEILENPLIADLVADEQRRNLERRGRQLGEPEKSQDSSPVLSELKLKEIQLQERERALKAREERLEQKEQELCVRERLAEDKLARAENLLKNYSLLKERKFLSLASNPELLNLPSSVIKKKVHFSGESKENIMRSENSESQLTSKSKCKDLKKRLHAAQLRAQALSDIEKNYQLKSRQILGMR
T4 sequence (P27361 whole entry): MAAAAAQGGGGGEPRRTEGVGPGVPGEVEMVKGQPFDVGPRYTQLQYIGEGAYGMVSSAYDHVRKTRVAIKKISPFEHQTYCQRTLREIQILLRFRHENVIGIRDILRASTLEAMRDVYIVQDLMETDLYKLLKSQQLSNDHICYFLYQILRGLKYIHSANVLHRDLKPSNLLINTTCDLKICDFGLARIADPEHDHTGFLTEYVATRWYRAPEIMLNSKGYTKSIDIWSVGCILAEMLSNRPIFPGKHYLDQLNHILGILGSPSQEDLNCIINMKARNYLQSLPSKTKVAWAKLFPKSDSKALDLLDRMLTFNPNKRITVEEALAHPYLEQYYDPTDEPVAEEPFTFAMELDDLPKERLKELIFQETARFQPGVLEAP

SMILES | remaining binding at 10 µM (YSK4) [%] | remaining binding at 10 µM (STK36) [%] | remaining binding at 10 µM (EPHA7) [%] | remaining binding at 10 µM (IRAK3) [%] | remaining binding at 10 µM (MKNK1) [%] | remaining binding at 10 µM (CLK3) [%] | remaining binding at 10 µM (TRPM6) [%] | remaining binding at 10 µM (NEK2) [%] | remaining binding at 10 µM (CDC2L1) [%] | remaining binding at 10 µM (CDK2) [%] | remaining binding at 10 µM (WEE2) [%] | remaining binding at 10 µM (FAK) [%] | remaining binding at 10 µM (ERK1) [%] | remaining binding at 10 µM (EPHB3) [%] | remaining binding at 10 µM (MARK4) [%] | remaining binding at 10 µM (EPHA6) [%] | remaining binding at 10 µM (FLT3) [%] | remaining binding at 10 µM (CDK4-cyclinD3) [%] | remaining binding at 10 µM (LOK) [%] | remaining binding at 10 µM (TRKB) [%] | other results
COc1ccc(-c2cnccc2-c2cnc(NC(=O)C(C)C)s2)c(C(F)(F)F)c1 [CRT0105446, N-{5-[3-(4-Methoxy-2-trifluoromethyl-phenyl)-pyridin-4-yl]-hiazol-2-yl}-isobutyramide] | 90 | 57 | 94 | 89 | 49 | 49 | 94 | 100 | 54 | 0.9 | 100 | 100 | 100 | 83 | 57 | 86 | 41 | 48 | 100 | 99 | remaining binding at 10 µM (ERK3): 100%; remaining binding at 10 µM (FLT3(ITD)): 79%; remaining binding at 10 µM [1]: 89%
Cc1ccc(-c2cnccc2-c2cnc(Nc3ccc(O)cc3)s2)c(Cl)c1 [CRT0105950, 4-{5-[3-(2-Chloro-4-methyl-phenyl)-pyridin-4-yl]-thiazol-2-ylamino}-phenol] | 53 | 17 | 83 | 8.1 | 46 | 22 | 93 | 82 | 71 | 0.2 | 100 | 33 | 96 | 96 | 4 | 30 | 0.55 | 13 | 51 | 6.4 | remaining binding at 10 µM (ERK3): 97%; remaining binding at 10 µM (FLT3(ITD)): 4.4%; remaining binding at 10 µM [1]: 53%

Source: publication PMC4770715, “LIM kinase inhibitors disrupt mitotic microtubule organization and impair tumor cell proliferation” (Oncotarget, 2015)
